Consider 19 compounds from PubChem BioAssay AID328 (DTP/NCI, 2004).

Where “and” joins values, the source holds several entries; their conditions need not be identical. Identical values can stand only once. Inconclusive results and toxic doses are left out.

This assay has as its system BDF1 mice, P388 leukemia ip, median survival T/C. The assay is described as follows: NCI In Vivo Anticancer Drug Screen. Data for tumor model P388 Leukemia (intraperitoneal) in B6D2F1 (BDF1) mice. Particulars: endpoint: median survival time, higher = longer survival. An outline of the steps: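 Reported as T/C, where T is the survival measurement in dosed animals and C the same measurement in vehicle controls.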

The mark [1] stands for this setting: dose: 100.0 mg/kg/injection, schedule: Q01DX009 (ip), vehicle: saline with Tween-80.
The mark [2] stands for this setting: dose: 200.0 mg/kg/injection, schedule: Q01DX009 (ip), vehicle: saline with Tween-80.
The mark [3] stands for this setting: dose: 400.0 mg/kg/injection, schedule: Q04DX003 (ip), vehicle: saline with Tween-80.
The mark [4] stands for this setting: dose: 100.0 mg/kg/injection, schedule: Q01DX009 (ip), vehicle: Klucel (hydroxypropylcellulose) (HPC).
Setting [5] is: dose: 50.0 mg/kg/injection, schedule: Q01DX009 (ip), vehicle: saline with Tween-80.
[6] abbreviates: dose: 100.0 mg/kg/injection, schedule: Q04DX003 (ip), vehicle: Klucel (hydroxypropylcellulose) (HPC).
The mark [7] stands for this setting: dose: 200.0 mg/kg/injection, schedule: Q04DX003 (ip), vehicle: Klucel (hydroxypropylcellulose) (HPC).
Setting [8] is: dose: 400.0 mg/kg/injection, schedule: Q04DX003 (ip), vehicle: Klucel (hydroxypropylcellulose) (HPC).
The mark [9] stands for this setting: dose: 200.0 mg/kg/injection, schedule: Q01DX009 (ip), vehicle: saline.

Turning to `CN(C)CCCN1c2ccccc2Sc2ccc(F)cc21`, the T/C reads like this: (dose: 6.25 mg/kg/injection, schedule: Q01DX009 (ip), vehicle: saline) 104 % of control; (dose: 12.5 mg/kg/injection, schedule: Q01DX009 (ip), vehicle: saline) 109 % of control; (dose: 25.0 mg/kg/injection, schedule: Q01DX009 (ip), vehicle: saline) 122 % of control; (dose: 25.0 mg/kg/injection, schedule: Q04DX003 (ip), vehicle: saline) 104 % of control; (dose: 50.0 mg/kg/injection, schedule: Q04DX003 (ip), vehicle: saline) 118 % of control.

Regarding `CN(Cc1cnc2nc(N)nc(N)c2n1)c1c(Cl)cc(C(=O)NC(CCC(=O)O)C(=O)O)cc1Cl` (stereo not given), the T/C was 213 % of control (dose: 17.5 mg/kg/injection, schedule: Q01DX009 (ip), vehicle: saline); 270 % of control (dose: 35.0 mg/kg/injection, schedule: Q01DX009 (ip), vehicle: saline); 270 % of control (dose: 70.0 mg/kg/injection, schedule: Q01DX009 (ip), vehicle: saline); 95 % of control under setting [1]; 86 % of control under setting [2]; 175 % of control (dose: 264.0 mg/kg/injection, schedule: Q04DX003 (ip), vehicle: saline with Tween-80). In addition, the T/C under setting [3] is 241 % of control and the T/C (dose: 600.0 mg/kg/injection, schedule: Q04DX003 (ip), vehicle: saline with Tween-80) is 250 % of control.

Regarding `OCC1OC(n2cnc3c(NO)ncnc32)C(O)C1O` (stereo not given), the T/C was 108 % of control (dose: 12.5 mg/kg/injection, schedule: Q01DX009 (ip), vehicle: Klucel (hydroxypropylcellulose) (HPC)) and 108 % of control under setting [4].

For `CC1(C)CC2(C)OC2C2(C1)N=NC(=O)O2` (stereo not given), the T/C is, setting by setting: under setting [5], 98 % of control; under setting [1], 107 % of control; under setting [2], 121 % of control.

Turning to `Cc1cc(N(CCCl)CCCl)ccc1C=Nc1cccnc1`, the T/C is 100 % of control and 113 % of control (dose: 50.0 mg/kg/injection, schedule: Q01DX009 (ip), vehicle: Klucel (hydroxypropylcellulose) (HPC)); 100 % of control (dose: 50.0 mg/kg/injection, schedule: Q04DX003 (ip), vehicle: Klucel (hydroxypropylcellulose) (HPC)); 152 % of control under setting [4]; 95 % of control under setting [6]; 150 % of control and 156 % of control (dose: 200.0 mg/kg/injection, schedule: Q01DX009 (ip), vehicle: Klucel (hydroxypropylcellulose) (HPC)); 120 % of control under setting [7]. In addition, the T/C runs as follows: (dose: 400.0 mg/kg/injection, schedule: Q01DX009 (ip), vehicle: Klucel (hydroxypropylcellulose) (HPC)) 169 % of control and 190 % of control; under setting [8], 120 % of control.

Turning to `CC(N)C(=O)NC(C)C(=O)O` (stereo not given), the T/C is 98 % of control (dose: 100.0 mg/kg/injection, schedule: Q01DX001 (ip), vehicle: saline); 100 % of control (dose: 200.0 mg/kg/injection, schedule: Q01DX001 (ip), vehicle: saline); 99 % of control (dose: 400.0 mg/kg/injection, schedule: Q01DX001 (ip), vehicle: saline).

On to `Cc1cc(C)c(C)c(C(O)(C(=O)O)c2ccccc2)c1` (stereo not given), for which the T/C is 87 % of control under setting [1] and 104 % of control under setting [2].

On to `CCC(C(N)C(=O)O)C(F)(F)F` (stereo not given), for which the T/C (dose: 50.0 mg/kg/injection, schedule: Q01DX005 (ip), vehicle: saline) was 103 % of control; the T/C (dose: 100.0 mg/kg/injection, schedule: Q01DX005 (ip), vehicle: saline) was 108 % of control; the T/C (dose: 200.0 mg/kg/injection, schedule: Q01DX005 (ip), vehicle: saline) is 103 % of control.

Consider `CN(C)C(=O)c1cccc(N)c1`, for which the T/C reads like this: (dose: 100.0 mg/kg/injection, schedule: Q01DX009 (ip), vehicle: saline) 100 % of control; under setting [9], 95 % of control; (dose: 400.0 mg/kg/injection, schedule: Q01DX009 (ip), vehicle: saline) 100 % of control.

For the compound `COC(=O)C1C(=O)COC1C` (stereo not given), the T/C (dose: 12.5 mg/kg/injection, schedule: Q01DX005 (ip), vehicle: saline with Tween-80) is 109 % of control; the T/C (dose: 25.0 mg/kg/injection, schedule: Q01DX005 (ip), vehicle: saline with Tween-80) is 112 % of control; the T/C (dose: 50.0 mg/kg/injection, schedule: Q01DX005 (ip), vehicle: saline with Tween-80) was 110 % of control.

As to `C=C(CCC(C(=O)O)C1CCC2(C)C3=C(CCC12C)C1(C)CCC(O)C(C)(C)C1CC3)C(C)C` (stereo not given), the T/C (dose: 12.5 mg/kg/injection, schedule: Q01DX009 (sc), vehicle: steriod suspending solution) was 100 % of control; the T/C (dose: 25.0 mg/kg/injection, schedule: Q01DX009 (sc), vehicle: steriod suspending solution) was 99 % of control; the T/C (dose: 50.0 mg/kg/injection, schedule: Q01DX009 (ip), vehicle: steriod suspending solution) was 87 % of control; the T/C (dose: 50.0 mg/kg/injection, schedule: Q01DX009 (sc), vehicle: steriod suspending solution) is 98 % of control; the T/C (dose: 100.0 mg/kg/injection, schedule: Q01DX009 (ip), vehicle: steriod suspending solution) was 92 % of control; the T/C (dose: 100.0 mg/kg/injection, schedule: Q01DX009 (sc), vehicle: steriod suspending solution) was 101 % of control and 106 % of control. Also, the T/C (dose: 200.0 mg/kg/injection, schedule: Q01DX009 (sc), vehicle: steriod suspending solution) was 91 % of control.

As for `Nc1nc(CNc2ccc(Cl)cc2)nc(Nc2cccc(Cl)c2)n1`, the T/C by setting is: (dose: 100.0 mg/kg/injection, schedule: Q01DX001 (ip), vehicle: saline sonified) 100 % of control; (dose: 200.0 mg/kg/injection, schedule: Q01DX001 (ip), vehicle: saline sonified) 105 % of control; (dose: 400.0 mg/kg/injection, schedule: Q01DX001 (ip), vehicle: saline sonified) 100 % of control.

Turning to `CCOC(=O)CNC(=O)C(CSSCC(NC(=O)OCc1ccccc1)C(=O)NCC(=O)OCC)NC(=O)OCc1ccccc1` (stereo not given), the T/C is, setting by setting: under setting [6], 118 % of control; under setting [7], 86 % of control; under setting [8], 109 % of control.

Consider `COc1cc2c(cc1OC)C(=O)N(C)CC2`, for which the T/C was 105 % of control (dose: 50.0 mg/kg/injection, schedule: Q01DX009 (ip), vehicle: saline); 97 % of control (dose: 100.0 mg/kg/injection, schedule: Q01DX009 (ip), vehicle: water); 119 % of control under setting [9].

With `COC1CC(N=[N+]=[N-])C(O)C(C)O1` (stereo not given), the T/C is 118 % of control and 101 % of control (dose: 100.0 mg/kg/injection, schedule: Q04DX003 (ip), vehicle: saline with Tween-80); 110 % of control and 101 % of control (dose: 200.0 mg/kg/injection, schedule: Q04DX003 (ip), vehicle: saline with Tween-80); 118 % of control and 93 % of control under setting [3]; 109 % of control (dose: 500.0 mg/kg/injection, schedule: Q04DX003 (ip), vehicle: saline with Tween-80).

`CC(C)(O)c1cccc(C(=O)O)c1Sc1ccccc1`: the T/C is 100 % of control (dose: 100.0 mg/kg/injection, schedule: Q01DX001 (ip), vehicle: saline with Tween-80); 95 % of control (dose: 200.0 mg/kg/injection, schedule: Q01DX001 (ip), vehicle: saline with Tween-80); 101 % of control (dose: 400.0 mg/kg/injection, schedule: Q01DX001 (ip), vehicle: saline with Tween-80).

Take `COc1ccc(/C(C#N)=C\c2ccnc3ccccc23)cc1`: the T/C (dose: 12.5 mg/kg/injection, schedule: Q01DX009 (ip), vehicle: other) is 89 % of control; the T/C (dose: 25.0 mg/kg/injection, schedule: Q01DX009 (ip), vehicle: other) is 93 % of control; the T/C (dose: 50.0 mg/kg/injection, schedule: Q01DX009 (ip), vehicle: other) is 90 % of control; the T/C (dose: 200.0 mg/kg/injection, schedule: Q01DX009 (ip), vehicle: other) was 100 % of control.

Consider `CC1=CC(=O)NC1=O`, for which the T/C (dose: 4.3 mg/kg/injection, schedule: Q01DX009 (ip), vehicle: saline) was 114 % of control; the T/C (dose: 6.4 mg/kg/injection, schedule: Q01DX009 (ip), vehicle: saline) is 102 % of control; the T/C (dose: 9.6 mg/kg/injection, schedule: Q01DX009 (ip), vehicle: saline) is 117 % of control; the T/C (dose: 14.0 mg/kg/injection, schedule: Q01DX009 (ip), vehicle: saline) was 123 % of control.

Regarding `O=C1Nc2ccc(Br)cc2C1=Nc1cccnc1`, the T/C under setting [5] was 100 % of control; the T/C under setting [1] was 104 % of control; the T/C under setting [2] is 111 % of control; the T/C (dose: 400.0 mg/kg/injection, schedule: Q01DX009 (ip), vehicle: saline with Tween-80) is 111 % of control.
